Test results from US10905680B2, “Methods of treatment for cholestatic and fibrotic diseases” (Genfit, priority 2016, dated 2021).

Key:
[1] = system: human primary hepatic stellate cells (hHSC); test: TGFβ1-induced expression of α-SMA protein in human HSC (ELISA); type: cell-based; settings: Homo sapiens, 1 h preincubation, TGFβ1 1 ng/ml, 48 hours, read-out: IC50 (level of α-SMA in TGFβ-induced HSCs)
Experimental: Serum-deprived HSC were preincubated for 1 hour with NTZ (A) or TZ (B) before the activation with the profibrogenic cytokine TGFβ1 (1 ng/ml). After 48 hours of incubation, the expression of α-SMA was measured by ELISA. The obtained values were transformed into percentage inhibition over TGFβ1 control. Data are presented as mean (triplicates)±standard deviation (SD). Statistical analyses were performed by one-way ANOVA followed by Bonferroni post-hoc tests, using Sigma Plot 11.0 software. [*: p<0.05; **: p<0.01; ***: p<0.001 (comparison versus TGFβ1 1 ng/mL group)]. The curve fitting and the calculation of half maximal inhibitory concentration (IC50) were performed with XLFit software 5.3.1.3. The human primary hepatic stellate cells (hHSC) (Innoprot) were cultured in STeCM medium (ScienCell cat #5301) that was supplemented with 2% fetal bovine serum (FBS, ScienCell cat #0010), 1% penicillin/streptomycin (ScienCell cat #0503) and stellate cell growth supplement (SteCGS; ScienCell cat #5352). Cell culture flasks were coated with Poly-L Lysine (Sigma cat # P4707) for a better adherence. The human primary hepatic stellate cells (hHSC) (Innoprot) were cultured under standard conditions, as described above. The cells were subsequently plated at a density of 7×10^4 cells/well into 24-well plates for gene expression studies, and at a density of 2×10^4 cells/well into 96-well plates for the measure of α-SMA by ELISA. The next day, cell culture medium was removed, and cells were washed with PBS (Invitrogen cat #14190). hHSC were deprived for 24 hours in serum-free and SteCGS-free medium. For the treatments with NTZ or TZ, the serum-deprived hHSC were preincubated for 1 hour with the compounds followed by the addition of the profibrogenic stimuli TGFβ1 (PeproTech cat #100-21, 1 ng/mL) in serum-free and SteCGS-free medium for an additional 24 or 48 hour period (the timepoint is indicated in the figure legends). […] The level of α-SMA was measured using a Sandwich ELISA. […]

HSC = test: Toxicity assays in HSC; type: cell-based, human; settings: data not shown

CC(=O)Oc1ccccc1C(=O)Nc1ncc([N+](=O)[O-])s1 [NTZ, [2-[(5-nitro-1,3-thiazol-2-yl)carbamoyl]phenyl]ethanoate, reference compound]
IC50 [1]: 100 to 3000 nM
toxicity or apoptosis of HSC (HSC): not due to toxicity or apoptosis
